From paper PMC8689225, “Cardiac ryanodine receptor N-terminal region biosensors identify novel inhibitors via FRET-based high-throughput screening” (The Journal of Biological Chemistry, 2021)

Molecular target: T1, RyR1 (Rattus norvegicus, UniProt F1LMY4)
T1 construct: from tissue; host or cells: Wistar rat extensor digitorum longus (EDL), mechanically skinned single fibres
Experiment: t-tubule Ca2+ measurement of RyR1 leak in skinned skeletal muscle fibers
Format: cell-based
Conditions: 10 μM FA or 1 mM tetracaine, [Ca2+]cyto 200 nM
Experimental: All experimental methods using rodents were approved by the Animal Ethics Committees at The University of Queensland and were performed in accordance with the relevant guidelines and regulations. Five-month-old Wistar rats (UQ Biological Resources) were euthanized by asphyxiation via CO2 exposure, and the extensor digitorum longus (EDL) was rapidly excised. Once dissected, muscles were pinned to Sylgard set in a Petri dish containing paraffin oil.
Bundles of fibers were isolated and exposed to an internal solution containing rhod-5N, as described previously ([47]). After 15 min incubation, single skeletal muscle fibers were mechanically skinned and mounted in a custom-made chamber. […] For tracking Ca^2+ movements across the t-system membrane, images were continuously recorded in xyt mode with an aspect ratio of 256 × 512, with the long aspect of the image parallel with that of the preparation. Temporal resolution of imaging in this mode where the fluorescence signal was within the borders of the fiber was 0.8 s.
T-system rhod-5N fluorescence was converted to [Ca^2+]t-sys as previously described ([47]). To determine the effect of RyR modulators on the RyR Ca^2+ leak, isolated mechanically skinned fibers were continuously imaged as described above, to obtain a record of t-system rhod-5N fluorescence changes over time as the cytoplasmic solution bathing the fiber was changed. […]

T1 sequence (F1LMY4 whole entry): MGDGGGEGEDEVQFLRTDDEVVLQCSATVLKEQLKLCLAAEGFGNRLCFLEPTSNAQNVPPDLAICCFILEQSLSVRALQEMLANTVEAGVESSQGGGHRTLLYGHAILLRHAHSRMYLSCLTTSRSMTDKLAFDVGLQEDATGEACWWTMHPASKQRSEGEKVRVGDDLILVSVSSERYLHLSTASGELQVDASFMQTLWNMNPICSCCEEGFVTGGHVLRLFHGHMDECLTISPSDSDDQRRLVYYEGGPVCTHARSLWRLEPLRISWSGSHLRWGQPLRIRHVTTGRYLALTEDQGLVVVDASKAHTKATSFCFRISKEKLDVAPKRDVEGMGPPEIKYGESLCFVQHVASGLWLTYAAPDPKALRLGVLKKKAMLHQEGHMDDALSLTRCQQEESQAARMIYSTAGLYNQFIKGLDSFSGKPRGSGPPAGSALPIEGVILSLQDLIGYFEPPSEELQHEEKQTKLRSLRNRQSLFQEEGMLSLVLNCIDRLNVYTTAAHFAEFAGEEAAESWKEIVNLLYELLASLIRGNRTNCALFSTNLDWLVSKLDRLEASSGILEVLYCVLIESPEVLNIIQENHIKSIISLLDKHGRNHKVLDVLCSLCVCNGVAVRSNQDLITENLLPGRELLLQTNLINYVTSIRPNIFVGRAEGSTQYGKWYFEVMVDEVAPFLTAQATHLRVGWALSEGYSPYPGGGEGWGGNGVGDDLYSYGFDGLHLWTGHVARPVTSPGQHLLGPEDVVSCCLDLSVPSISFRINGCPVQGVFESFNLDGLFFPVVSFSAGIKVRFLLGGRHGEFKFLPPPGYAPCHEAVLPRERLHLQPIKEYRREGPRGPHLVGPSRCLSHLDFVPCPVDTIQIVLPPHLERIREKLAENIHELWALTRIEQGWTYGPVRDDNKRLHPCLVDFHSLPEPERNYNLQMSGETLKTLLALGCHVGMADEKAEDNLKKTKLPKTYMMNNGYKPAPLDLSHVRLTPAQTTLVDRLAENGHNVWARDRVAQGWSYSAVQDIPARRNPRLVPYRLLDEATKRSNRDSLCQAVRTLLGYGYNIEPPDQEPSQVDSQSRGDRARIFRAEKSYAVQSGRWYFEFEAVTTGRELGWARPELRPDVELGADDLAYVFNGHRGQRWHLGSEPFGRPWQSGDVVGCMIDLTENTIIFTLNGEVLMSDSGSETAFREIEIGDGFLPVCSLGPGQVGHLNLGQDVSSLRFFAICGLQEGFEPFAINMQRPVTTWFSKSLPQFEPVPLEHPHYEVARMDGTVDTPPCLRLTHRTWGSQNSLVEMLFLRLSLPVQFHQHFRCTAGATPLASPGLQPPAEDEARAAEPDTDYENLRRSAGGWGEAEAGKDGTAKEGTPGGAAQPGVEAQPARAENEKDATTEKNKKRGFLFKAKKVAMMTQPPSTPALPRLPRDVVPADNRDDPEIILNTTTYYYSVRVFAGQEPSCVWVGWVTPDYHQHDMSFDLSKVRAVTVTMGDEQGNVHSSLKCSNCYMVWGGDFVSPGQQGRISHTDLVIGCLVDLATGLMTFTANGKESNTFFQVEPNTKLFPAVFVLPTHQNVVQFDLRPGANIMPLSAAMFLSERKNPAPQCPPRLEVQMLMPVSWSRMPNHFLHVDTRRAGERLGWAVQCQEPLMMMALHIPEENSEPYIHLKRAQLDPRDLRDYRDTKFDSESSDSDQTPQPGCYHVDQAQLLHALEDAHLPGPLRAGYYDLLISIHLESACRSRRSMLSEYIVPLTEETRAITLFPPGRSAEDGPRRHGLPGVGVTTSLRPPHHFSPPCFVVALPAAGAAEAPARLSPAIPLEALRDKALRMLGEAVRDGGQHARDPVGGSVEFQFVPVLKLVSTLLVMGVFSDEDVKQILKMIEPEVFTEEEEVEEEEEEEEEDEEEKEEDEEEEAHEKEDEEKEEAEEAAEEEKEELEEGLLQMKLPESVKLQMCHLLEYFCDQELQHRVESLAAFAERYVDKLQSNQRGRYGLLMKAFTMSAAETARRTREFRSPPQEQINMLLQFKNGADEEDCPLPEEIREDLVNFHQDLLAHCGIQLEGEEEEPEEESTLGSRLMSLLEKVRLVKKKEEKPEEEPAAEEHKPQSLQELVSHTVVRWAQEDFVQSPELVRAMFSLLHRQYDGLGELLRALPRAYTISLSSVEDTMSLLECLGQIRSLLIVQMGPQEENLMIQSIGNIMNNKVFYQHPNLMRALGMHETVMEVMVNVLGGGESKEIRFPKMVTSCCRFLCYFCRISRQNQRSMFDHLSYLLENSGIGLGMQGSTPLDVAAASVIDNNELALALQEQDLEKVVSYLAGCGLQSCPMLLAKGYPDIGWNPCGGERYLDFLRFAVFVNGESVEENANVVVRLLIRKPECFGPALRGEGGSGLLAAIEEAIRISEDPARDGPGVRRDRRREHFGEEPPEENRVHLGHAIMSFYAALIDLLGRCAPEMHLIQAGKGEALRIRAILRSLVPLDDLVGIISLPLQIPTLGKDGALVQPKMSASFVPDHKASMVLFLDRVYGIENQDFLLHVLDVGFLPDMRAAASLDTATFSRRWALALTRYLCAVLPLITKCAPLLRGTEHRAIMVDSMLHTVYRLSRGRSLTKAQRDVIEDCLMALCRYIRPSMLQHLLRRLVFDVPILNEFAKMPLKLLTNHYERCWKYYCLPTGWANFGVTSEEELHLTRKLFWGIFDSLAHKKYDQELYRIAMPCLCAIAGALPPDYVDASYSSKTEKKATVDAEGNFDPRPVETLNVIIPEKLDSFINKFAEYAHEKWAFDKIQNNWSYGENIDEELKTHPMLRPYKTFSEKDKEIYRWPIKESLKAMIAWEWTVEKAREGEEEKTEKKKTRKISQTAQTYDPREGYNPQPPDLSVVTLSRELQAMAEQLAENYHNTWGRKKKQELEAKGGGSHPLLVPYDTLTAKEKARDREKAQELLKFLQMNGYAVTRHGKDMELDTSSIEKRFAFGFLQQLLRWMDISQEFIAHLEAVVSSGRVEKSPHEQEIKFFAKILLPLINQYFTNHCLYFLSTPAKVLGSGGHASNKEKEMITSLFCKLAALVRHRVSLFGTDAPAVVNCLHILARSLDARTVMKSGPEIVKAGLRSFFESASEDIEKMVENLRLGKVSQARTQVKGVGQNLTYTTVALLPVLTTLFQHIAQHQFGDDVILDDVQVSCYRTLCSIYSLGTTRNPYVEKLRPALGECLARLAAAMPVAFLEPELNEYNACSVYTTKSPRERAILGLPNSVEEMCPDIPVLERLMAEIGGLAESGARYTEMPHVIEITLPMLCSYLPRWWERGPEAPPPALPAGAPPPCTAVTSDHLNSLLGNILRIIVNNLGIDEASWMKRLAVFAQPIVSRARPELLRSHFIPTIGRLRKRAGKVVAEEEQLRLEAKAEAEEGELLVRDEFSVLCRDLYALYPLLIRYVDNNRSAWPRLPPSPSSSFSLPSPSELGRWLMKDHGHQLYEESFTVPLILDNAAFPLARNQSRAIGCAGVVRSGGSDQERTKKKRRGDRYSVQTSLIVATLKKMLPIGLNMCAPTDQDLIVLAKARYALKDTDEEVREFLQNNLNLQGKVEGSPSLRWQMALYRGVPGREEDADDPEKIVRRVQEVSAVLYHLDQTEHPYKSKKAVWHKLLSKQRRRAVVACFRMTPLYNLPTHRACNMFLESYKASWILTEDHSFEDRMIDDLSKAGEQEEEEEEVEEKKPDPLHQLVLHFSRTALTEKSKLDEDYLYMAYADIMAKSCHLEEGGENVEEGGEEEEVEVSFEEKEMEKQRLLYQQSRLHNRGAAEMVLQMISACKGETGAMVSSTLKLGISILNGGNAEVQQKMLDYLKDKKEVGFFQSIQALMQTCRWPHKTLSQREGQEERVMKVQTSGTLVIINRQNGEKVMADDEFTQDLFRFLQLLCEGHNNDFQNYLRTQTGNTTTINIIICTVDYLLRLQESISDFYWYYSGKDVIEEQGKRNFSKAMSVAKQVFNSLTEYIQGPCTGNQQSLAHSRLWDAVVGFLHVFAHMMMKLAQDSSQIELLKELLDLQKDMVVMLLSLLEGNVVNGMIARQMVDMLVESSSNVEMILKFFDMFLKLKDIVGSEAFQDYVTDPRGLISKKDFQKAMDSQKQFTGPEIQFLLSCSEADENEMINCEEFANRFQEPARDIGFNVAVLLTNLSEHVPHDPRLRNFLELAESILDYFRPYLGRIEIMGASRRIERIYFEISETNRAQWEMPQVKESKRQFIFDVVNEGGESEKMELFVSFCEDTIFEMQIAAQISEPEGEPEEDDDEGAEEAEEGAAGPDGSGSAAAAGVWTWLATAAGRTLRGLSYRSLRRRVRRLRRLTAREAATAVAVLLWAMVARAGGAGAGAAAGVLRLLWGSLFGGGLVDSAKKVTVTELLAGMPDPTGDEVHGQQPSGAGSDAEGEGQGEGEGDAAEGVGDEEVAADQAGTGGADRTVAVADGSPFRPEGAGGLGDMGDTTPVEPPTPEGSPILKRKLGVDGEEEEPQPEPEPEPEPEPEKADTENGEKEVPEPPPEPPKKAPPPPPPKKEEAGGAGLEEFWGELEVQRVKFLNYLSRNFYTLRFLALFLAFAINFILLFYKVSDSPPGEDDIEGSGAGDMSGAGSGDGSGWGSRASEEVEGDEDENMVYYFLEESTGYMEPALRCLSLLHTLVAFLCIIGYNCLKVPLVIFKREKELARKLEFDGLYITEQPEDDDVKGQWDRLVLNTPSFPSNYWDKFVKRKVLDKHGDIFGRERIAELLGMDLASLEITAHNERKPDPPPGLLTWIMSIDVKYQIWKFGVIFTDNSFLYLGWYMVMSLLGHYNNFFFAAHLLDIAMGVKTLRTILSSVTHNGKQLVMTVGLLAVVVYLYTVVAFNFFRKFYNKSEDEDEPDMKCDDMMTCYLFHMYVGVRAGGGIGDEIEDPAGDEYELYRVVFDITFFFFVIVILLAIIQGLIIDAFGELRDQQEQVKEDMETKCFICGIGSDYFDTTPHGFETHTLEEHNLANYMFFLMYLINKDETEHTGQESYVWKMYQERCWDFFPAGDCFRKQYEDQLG

CC(=O)O[C@H]1C[C@@]2(C)[C@@H](C[C@@H](O)[C@H]3[C@@]4(C)CC[C@@H](O)[C@@H](C)[C@@H]4CC[C@@]32C)/C1=C(\CCC=C(C)C)C(=O)O [FA, (2Z)-2-[(3R,4S,5S,8S,9S,10S,11R,13R,14S,16S)-16-acetyloxy-3,11-dihydroxy-4,8,10,14-tetramethyl-2,3,4,5,6,7,9,11,12,13,15,16-dodecahydro-1H-cyclopenta[a]phenanthren-17-ylidene]-6-methylhept-5-enoic acid]
steady-state [Ca2+]t-sys (RyR1 leak): decreased
